Assay results from patent publication US10328084B2, “Pyrrolobenzodiazepines and targeted conjugates” (priority 2011, dated 2019).

Columns and labels:
Format in all cases: cell-based
786-O = assay: in vitro cytotoxic activity, resazurin reduction assay, 786-O; conditions: Homo sapiens, 786-0, 48 h, read-out: IC50 in pM following 48 hours treatment, 786-O
Experimental: (§1) The in vitro cytotoxic activity of the selected antibody drug conjugate was assessed using a resazurin (Sigma, St. Louis, Mo., USA) reduction assay (reference: Doronina et al., Nature Biotechnology, 2003, 21, 778-784). The antibody drug conjugate was prepared as described above.
(§2) For the 96-hour assay, cells cultured in log-phase growth were seeded for 24 h in 96-well plates containing 150 μL RPMI 1640 supplemented with 20% FBS. Serial dilutions of ADC in cell culture media were prepared at 4× working concentration; 50 μL of each dilution was added to the 96-well plates. Following addition of ADC, the cells were incubated with test articles for 4 days at 37° C. Resazurin was then added to each well to achieve a 50 μM final concentration, and the plates were incubated for an additional 4 hours at 37° C. The plates were then read for the extent of dye reduction on a Fusion HT plate reader (Packard Instruments, Meridien, Conn., USA) with excitation and emission wavelengths of 530 and 590 nm, respectively. The IC50 value, determined in triplicate, is defined here as the concentration that results in a 50% reduction in cell growth relative to untreated controls.
(§3) Referring to the table below, the in vitro cytotoxicity of the ADC using the 96 hour assay is shown. […]

Caki-1 = assay: in vitro cytotoxic activity, resazurin reduction assay, Caki-1; conditions: Homo sapiens, CAKI-1, 48 h, read-out: IC50 in pM following 48 hours treatment, Caki-1
Experimental: as §1, §2, §3

HL60 = assay: in vitro cytotoxic activity, HL60; conditions: Homo sapiens, HL-60; HL60, 48 hours treatment, free PBD dimer; read-out: IC50 in pM following 48 hours treatment, HL60
Experimental: as §1
as §2, with “For the 96-hour assay, cells cultured in log-phase growth were seeded for 24 h in 96-well plates containing 150 μL RPMI 1640 supplemented with 20% FBS.” left out, “Following addition of ADC, the cells were incubated with test articles for 4 days at 37° C.” left out

HEL9217 = assay: in vitro cytotoxic activity, HEL9217; conditions: Homo sapiens, HEL 92.1.7; HEL9217, 48 hours treatment, free PBD dimer; read-out: IC50 in pM following 48 hours treatment, HEL9217
Experimental: as §1
as §2, with “For the 96-hour assay, cells cultured in log-phase growth were seeded for 24 h in 96-well plates containing 150 μL RPMI 1640 supplemented with 20% FBS.” left out, “Following addition of ADC, the cells were incubated with test articles for 4 days at 37° C.” left out

Compound	IC50 (786-O) [pM]	IC50 (Caki-1) [pM]	IC50 (HL60) [pM]	IC50 (HEL9217) [pM]
COCCOCCOCCOCCOc1ccc(C2=CN3C(=O)c4cc(OC)c(OCCCCCOc5cc6c(cc5OC)C(=O)N5C=C(c7ccc(N)cc7)C[C@@H]5C=N6)cc4N=C[C@H]3C2)cc1 [compound 23, (R)-2-(4-(2,5,8,11-tetraoxatridecan-13-yloxy)phenyl)-8-((5-(((R)-2-(4-aminophenyl)-7-methoxy-5-oxo-5,11a-dihydro-1H-benzo[e]pyrrolo[1,2-a][1,4]diazepin-8-yl)oxy)pentyl)oxy)-7-methoxy-1H-benzo[e]pyrrolo[1,2-a][1,4]diazepin-5(11aH)-one]	100	100	40	100
COc1cc2c(cc1OCCCCCOc1cc3c(cc1OC)C(=O)N1C=C(c4ccc(OCCCN(C)C)cc4)C[C@H]1C=N3)N=C[C@@H]1CC(c3ccc(N)cc3)=CN1C2=O [compound 17, (S)-2-(4-aminophenyl)-8-((5-(((S)-2-(4-(3-(dimethylamino)propoxy)phenyl)-7-methoxy-5-oxo-5,11a-dihydro-1H-benzo[e]pyrrolo[1,2-a][1,4]diazepin-8-yl)oxy)pentyl)oxy)-7-methoxy-1H-benzo[e]pyrrolo[1,2-a][1,4]diazepin-5(11 aH)-one]	7	2	3	2
